Measurements from US12357699B2, “B-cell immunotherapy in cancer treatment” (AKAMARA THERAPEUTICS, INC., priority 2018, dated 2025).

Tests used:
LLC cells = experiment: Combination of PD1 immune checkpoint inhibitor and IO-125 in immunocompetent murine NSCLC tumor model (LLC cells s.c. in C57/BL6 mice); type: in vivo; conditions: syngeneic lung cancer (LLC) bearing animals, two cycles
Experimental: The combination of a PD1 immune checkpoint inhibitor and IO-125 was evaluated in an immunocompetent murine NSCLS tumor model. The murine NSCLC tumor model was generated by subcutaneously implanting LLC cells in C57/BL6 mice. Treatment with saline (control), IO-125, immune check point inhibitor (anti-PD1 antibody, Biolegend) or combinatorial therapy (IO-125 and anti-PD1 antibody) was initiated when average tumor volume in the animals reached 100 mm^3, through i.v. administration of compounds. A schematic representation of the treatment regimen is depicted in FIG. 1A.
(§1) In contrast, 45% of the animals underwent complete tumor regression when the two drugs were combined. These observations illustrate that combinations of IO-125 with immune checkpoint inhibitor(s) augment tumor regression as compared to monotherapies.

IGKC [1] = experiment: Immune biomarker expression (molecular immunophenotyping, immunohistochemistry of FFPE sections) in LLC tumors; type: in vivo, C57/BL6 mice
From the text: as §1
Subsequently, tumors were harvested and a portion fixed in formalin.

4T1 cells [2] = experiment: Murine triple negative breast cancer (TNBC) tumor model (4T1 s.c. in Balb/c mice); type: in vivo; conditions: 4T1 tumor-bearing Balb/c mice, 20 mgPt/kg, two cycles
From the text: (§2) The efficacy of IO-125 was examined in the murine triple negative breast cancer (TNBC) tumor model (4T1). 4T1 cells were subcutaneously implanted in Balb/c mice to generate tumors and treated with IO-125 or saline (control), when tumors reached an average volume of 100 mm^3. The dose administered for IO-125 was 20 mgPt/kg, with a regimen of b5d. Following one cycle of treatment, tumors were harvested and a portion of the tumor from control and IO-125 treated group was used for total RNA isolation and subsequent evaluation of immune activating and immune suppressive genes (Denkert et al., Clin Oncol. 2015; 33(9):983-91) by semi-quantitative PCR. IO-125 treatment was continued for an additional cycle, with recording of tumor volume and examination of tumors for regression.

IGKC [3] = experiment: Semi-quantitative PCR of immune activating and suppressive genes in 4T1 tumors; type: in vivo, Balb/c mice; conditions: 4T1 tumors harvested after one cycle, 20 mgPt/kg
From the text: as §2

4T1 cells [4] = experiment: Tumor rechallenge (immune memory study), re-implantation of 4T1 cells; type: in vivo, Balb/c mice
Experimental: 4T1 cells were subcutaneously implanted in Balb/c mice to generate tumors. When tumors reached an average volume of 100 mm^3, they were treated with IO-125 (Group 1). Two groups of Balb/c mice (non-tumor bearing) were either treated with IO-125 or saline (designated Group 2 and 3 respectively; FIG. 3A). Immune memory cells are poised to rapidly expand and induce effector functions upon recurrence, while existing in a functionally quiescent state. To verify this hypothesis, we examined immune memory in IO-125 treated tumors.

[5] = system: B cell differentiation and TLR activation markers; experiment: Relative mRNA expression in naive splenic B cells cultured with conditioned media (TCM) from treated 4T1 cells; type: cell-based, mice; conditions: splenic B cells 48 hours in TCM from 4T1 cells treated 6 hours plus 42 hours
Experimental: 4T1 cells were seeded in cell culture dishes in IMDM media containing 10% FBS. The cells were treated with blank supramolecule (Vehicle) and IO-125 when they reached 60% confluence. Following a transient treatment of 6 hours, the media was removed and supplemented with fresh culture media and cells were incubated for additional 42 hours. Following treatment, the conditioned media from 4T1 cells (TCM) was collected for each treatment and filtered through 0.2 micron PES filters to obtain TCM free of cell debris. The harvested TCMs were used immediately for conditioning of B cells, isolated from naïve mice splenocytes using the EasySep Stem Cell B cell isolation kit as per manufacturers protocol. The B cells were incubated with conditioned media and harvested after 48 hours of incubation. RNA was isolated from the B cells and used for relative mRNA expression level evaluation of genes involved in B cell differentiation and TLR activation.

4T1 cells [6] = experiment: 4T1 tumor growth in B cell-deficient mice (Jh−/−); type: in vivo; conditions: 4T1 tumors
Experimental: (§3) 4T1 cells were subcutaneously implanted in the mice strains mentioned and when tumors reached an average volume of 100 mm^3, they were divided into two groups. One group was kept as control and the other treated with IO-125 and tumor volume in all the animals were recorded.

4T1 cells [7] = experiment: 4T1 tumor growth in mice lacking functional B cells and T cells (SCID); type: in vivo; conditions: 4T1 tumors
Experimental: as §3

[8] = system: genes involved in B cell differentiation and TLR activation; experiment: Relative mRNA expression in splenic B cells isolated from treated mice; type: in vivo, Balb/c mice; conditions: tumor bearing treated mice (Group 1)
Experimental: Splenic B cells were isolated from Group 1 and Group 2 mice, described in Example 3. Spleen was harvested from mice (n=3) and minced into small pieces in RPMI-1640 basal media. The pieces were placed on top of a 40 mesh membrane and crushed with the back of a syringe and the single cell suspension was collected onto a 50 mL tube. The single cell suspension was washed twice with PBS to remove debris by centrifuging at 2000 rpm. Splenocytes were counted using haemocytometer and 100 million splenocytes were resuspended in 1 mL of Isolation buffer (2% FBS, […] in DPBS) and transferred to a 5 ml Polystyrene tube. The B cells were isolated from splenocytes using the EasySep Stem Cell B cell isolation kit as per manufacturers protocol. One part of the isolated B cells was used for RNA isolation, followed by relative mRNA expression levels of genes involved in B cell differentiation and TLR activation were evaluated; while the second part was used for immunodetection of specific proteins, following the manufacturer's protocol.

CC(C)CCCC(C)C1CCC2C3CC=C4CC(OCCN(CC(=O)[O-])CC(=O)[O][Pt+]5[NH]C6CCCCC6[NH]5)CCC4(C)C3CCC12C (stereo not drawn) [IO-125]
tumor growth curves (FIG. 2C) (LLC cells): significant tumor growth inhibition but no regression | IGKC levels (FIG. 2D) (IGKC [1]; LLC tumors of treated animals, relative expression of immune biomarkers): increase in IGKC levels | immunodetection of B220 and IGKC in tumor sections (FIG. 2E) (IGKC [1]; treated versus control tumors): significantly increased expression of IGKC | tumor growth curve (FIG. 2A) (4T1 cells [2]): complete regression of tumors | IGKC mRNA levels in tumors (FIG. 2B) (IGKC [3]): significant increase in IGKC mRNA levels | tumor growth after re-implantation of cancer cells, Group 1 (4T1 cells [4]; animals that had previously undergone tumor regression with treatment): no tumor growth was observed | tumor growth after implantation of 4T1 cells, Group 2 (4T1 cells [4]; non-tumor bearing Balb/c mice pre-treated, compared with saline treated mice (Group 3)): led to the growth of tumors | B cell differentiation markers and TLR activation markers, relative mRNA (FIG. 4B) [5]: substantially increased | tumor ablation in Jh−/− mice (FIG. 4C) (4T1 cells [6]): Tumor ablation did not occur | tumor ablation in SCID mice (FIG. 4D) (4T1 cells [7]): Tumor ablation did not occur | expression of TLRs and CD80 in splenic B cells [8]: elevated expression of TLRs and CD80 | IGKC mRNA levels in splenic B cells (FIG. 5B) ([8]; normalized to Group 2): significant increase in IGKC mRNA levels
